Assay results reported in patent publication US9776979B2, “EBI2 modulators” (Sanford-Burnham Medical Research Institute, priority 2013, dated 2017).

These compounds were tested against EBI2 (Homo sapiens, UniProt P32249) (assay: Cell-based luminescent assay (EBI2 modulation)). Conditions: not given.
Sequence of EBI2 (P32249 whole entry): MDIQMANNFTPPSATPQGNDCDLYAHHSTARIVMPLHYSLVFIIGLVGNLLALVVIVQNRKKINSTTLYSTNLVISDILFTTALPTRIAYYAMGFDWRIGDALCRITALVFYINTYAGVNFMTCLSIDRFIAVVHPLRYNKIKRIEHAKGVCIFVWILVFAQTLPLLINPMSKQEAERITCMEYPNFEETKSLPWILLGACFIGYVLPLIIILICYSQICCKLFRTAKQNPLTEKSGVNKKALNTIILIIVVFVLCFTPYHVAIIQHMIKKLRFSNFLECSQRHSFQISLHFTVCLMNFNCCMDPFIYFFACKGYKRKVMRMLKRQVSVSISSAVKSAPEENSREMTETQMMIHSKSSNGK
Method in brief: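 Cells plated overnight at 37° C, then exposed to compound at 4-5 uM final with 80 nM 7a,25-OHC agonist for 60 min at 37° C. Luminescence read after 60 min detection at 25° C in the dark; values normalized to neutral and stimulator controls and plate-pattern corrected.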
With `O=C(c1cc2cc(Cl)ccc2[nH]1)N1CCC(Nc2cc(F)cc(F)c2)CC1` [Compound C273, 4-[(3,5-difluorophenyl)amino]piperidyl 5-chloroindol-2-yl ketone] the IC50 was less than 100 nM.

Same assay, conditions: cell-based luminescence; 7a,25-OHC final assay concentration 80 nM; 60 minutes incubation; read-out: IC50
In the case of `COc1ccc(CN2CCN(C(=O)C#Cc3ccc(Br)cc3)CC2)cc1` [Compound C274, 3-(4-bromophenyl)-1-{4-[(4-methoxyphenyl)methyl]piperazinyl}prop-2-yn-1-one], the IC50 is reported as less than 100 nM.
Work on `O=C(c1cnc2ccccc2n1)N1CCN(C(c2ccccc2)c2ccccc2)CC1` [Compound C276, 4-(diphenylmethyl)piperazinyl quinoxalin-2-yl ketone] yielded an IC50 of 100 to 500 nM.
Compound `O=C(/C=C/c1ccccc1C(F)(F)F)N1CCN(S(=O)(=O)c2ccc(Br)cc2)CC1` [Compound C277, (2E)-1-{4-[(4-bromophenyl)sulfonyl]piperazinyl}-3-[2-(trifluoromethyl)phenyl]prop-2-en-1-one] has an IC50 of 100 to 500 nM.
`O=C(c1cc2ccccn2n1)N1CCN(C(=O)c2cc3cc(Cl)ccc3[nH]2)CC1` [Compound C278, 5-chloroindol-2-yl 4-(8-hydropyrazolo[1,5-a]pyridin-2-ylcarbonyl)piperazinyl ketone] showed an IC50 of 100 to 500 nM.
`O=C(c1cn2ccccc2n1)N1CCN(C(=O)c2cc3cc(Cl)ccc3[nH]2)CC1` [Compound C279, 5-chloroindol-2-yl 4-(4-hydroimidazo[1,2-a]pyridin-2-ylcarbonyl)piperazinyl ketone] showed an IC50 of 100 to 500 nM.
For `COc1cc2cc(C(=O)N3CCN(C(c4ccccc4)c4ccccc4)CC3)[nH]c2cc1OC` [Compound C280, 5,6-dimethoxyindol-2-yl 4-(diphenylmethyl)piperazinyl ketone], the IC50 was 100 to 500 nM.
`O=C(C#Cc1cccc(Cl)c1Cl)N1CCN(Cc2ccc(C(F)(F)F)cc2)CC1` [Compound C281, 3-(2,3-dichlorophenyl)-1-(4-{[4-(trifluoromethyl)phenyl]methyl}piperazinyl)prop-2-yn-1-one] showed an IC50 of 100 to 500 nM.
Work on `NC(=O)c1ccc(C(=O)N2CCN(C(=O)c3cc4cc(Cl)ccc4[nH]3)CC2)cc1` [Compound C282, 4-({4-[(5-chloroindol-2-yl)carbonyl]piperazinyl}carbonyl)benzamide] yielded an IC50 of 100 to 500 nM.
`O=C(c1ccc2nc(C(F)F)[nH]c2c1)N1CCN(C(c2ccccc2)c2ccccc2)CC1` [Compound C283, 2-(difluoromethyl)benzimidazol-5-yl 4-(diphenylmethyl)piperazinyl ketone] showed an IC50 of 100 to 500 nM.
Work on `O=C(C#Cc1ccc(Cl)c(Cl)c1)N1CCN(Cc2ccc(F)cc2)CC1` [Compound C284, 3-(3,4-dichlorophenyl)-1-{4-[(4-fluorophenyl)methyl]piperazinyl}prop-2-yn-1-one] yielded an IC50 of 100 to 500 nM.
With `O=C(c1cc2cc(Cl)ccc2[nH]1)N1CCN(C(=O)c2cccnc2Cl)CC1` [Compound C285, 4-[(2-chloro(3-pyridyl))carbonyl]piperazinyl 5-chloroindol-2-yl ketone] the IC50 was 100 to 500 nM.
Compound `Cn1c(C(=O)N2CCN(C(=O)OC(C)(C)C)CC2)cc2ccccc21` [Compound C286, tert-butyl 4-[(1-methylindol-2-yl)carbonyl]piperazinecarboxylate] has an IC50 of 100 to 500 nM.
Work on `O=C(C#Cc1ccc(F)cc1)N1CCN(C(=O)c2ccc(F)cc2C(F)(F)F)CC1` [Compound C287, 3-(4-fluorophenyl)-1-(4-{[4-fluoro-2-(trifluoromethyl)phenyl]carbonyl}piperazinyl)prop-2-yn-1-one] yielded an IC50 of 100 to 500 nM.
Work on `O=C(c1cc2cc(Cl)ccc2[nH]1)N1CCN(C(=O)c2nc3ccccc3[nH]2)CC1` [Compound C288, 4-(benzimidazol-2-ylcarbonyl)piperazinyl 5-chloroindol-2-yl ketone] yielded an IC50 of 100 to 500 nM.
In the case of `O=C(c1cc2cc(Cl)ccc2[nH]1)N1CCC(Oc2ccccn2)CC1` [Compound C289, 5-chloroindol-2-yl 4-(2-pyridyloxy)piperidyl ketone], the IC50 is reported as 100 to 500 nM.
For `O=C(c1csc2ccccc12)N1CCN(C(c2ccccc2)c2ccccc2)CC1` [Compound C290, benzo[b]thiophen-3-yl 4-(diphenylmethyl)piperazinyl ketone], the IC50 was 100 to 500 nM.
For `O=C(c1ccc(C(F)(F)F)cc1)N1CCN(C(=O)c2cc3ccc(F)cc3[nH]2)CC1` [Compound C292, 6-fluoroindol-2-yl 4-{[4-(trifluoromethyl)phenyl]carbonyl}piperazinyl ketone], the IC50 was 100 to 500 nM.
Work on `O=C(c1cc2ccc(Br)cc2[nH]1)N1CCN(Cc2ccc(F)cc2)CC1` [Compound C293, 6-bromoindol-2-yl 4-[(4-fluorophenyl)methyl]piperazinyl ketone] yielded an IC50 of 100 to 500 nM.
Compound `O=C(C#Cc1cc(F)cc(F)c1)N1CCN(Cc2ccc(Cl)cc2)CC1` [Compound C294, 3-(3,5-difluorophenyl)-1-{4-[(4-chlorophenyl)methyl]piperazinyl}prop-2-yn-1-one] has an IC50 of 100 to 500 nM.
In the case of `CCN1CCN(C(=O)c2cc3cc(Cl)ccc3[nH]2)CC1` [Compound C295, 5-chloroindol-2-yl 4-ethylpiperazinyl ketone], the IC50 is reported as 100 to 500 nM.
Compound `O=C(c1ccc2nc[nH]c2c1)N1CCN(C(c2ccccc2)c2ccccc2)CC1` [Compound C296, benzimidazol-5-yl 4-(diphenylmethyl)piperazinyl ketone] has an IC50 of 100 to 500 nM.
With `O=C(C=Cc1ccc2c(c1)OCO2)N1CCN(Cc2ccc(Cl)cc2)CC1` [Compound C297, 3-(2H-benzo[3,4-d]1,3-dioxolan-5-yl)-1-{4-[(4-chlorophenyl)methyl]piperazinyl}prop-2-en-1-one] the IC50 was 100 to 500 nM.
With `O=C(C=Cc1ccc2c(c1)OCO2)N1CCN(Cc2ccc(Br)cc2)CC1` [Compound C298, 3-(2H-benzo[3,4-d]1,3-dioxolan-5-yl)-1-{4-[(4-bromophenyl)methyl]piperazinyl}prop-2-en-1-one] the IC50 was 100 to 500 nM.
`O=C(c1ccc2nc(C(F)(F)F)[nH]c2c1)N1CCN(C(c2ccccc2)c2ccccc2)CC1` [Compound C299, 4-(diphenylmethyl)piperazinyl 2-(trifluoromethyl)benzimidazol-5-yl ketone] was tested, and the IC50 was 100 to 500 nM.
`O=C(/C=C/c1ccc(Cl)cc1F)N1CCN(C(=O)c2cc3cc(Cl)ccc3[nH]2)CC1` [Compound C300, (2E)-3-(4-chloro-2-fluorophenyl)-1-{4-[(5-chloroindol-2-yl)carbonyl]piperazinyl}prop-2-en-1-one] showed an IC50 of less than 100 nM.
Work on `O=C(c1ccc2cc3ccccc3cc2c1)N1CCN(C(c2ccccc2)c2ccccc2)CC1` [Compound C301, 2-anthryl 4-(diphenylmethyl)piperazinyl ketone] yielded an IC50 of less than 100 nM.
`O=C(C#Cc1cccc(Cl)c1)N1CCN(Cc2ccc(F)cc2C(F)(F)F)CC1` [Compound C302, 3-(3-chlorophenyl)-1-(4-{[4-fluoro-2-(trifluoromethyl)phenyl]methyl}piperazinyl)prop-2-yn-1-one] showed an IC50 of less than 100 nM.
Work on `COc1ccc2cc(C(=O)N3CCN(C(c4ccccc4)c4ccccc4)CC3)[nH]c2c1` [Compound C304, 4-(diphenylmethyl)piperazinyl 6-methoxyindol-2-yl ketone] yielded an IC50 of less than 100 nM.
With `Nc1ccc(/C=C/C(=O)N2CCN(C(c3ccccc3)c3ccccc3)CC2)cc1` [Compound C305, (2E)-3-(4-aminophenyl)-1-[4-(diphenylmethyl)piperazinyl]prop-2-en-1-one] the IC50 was less than 100 nM.
`CCOc1ccc(/C=C/C(=O)N2CCN(S(=O)(=O)c3ccc(C(C)=O)cc3)CC2)cc1` [Compound C307, 4-({4-[(2E)-3-(4-ethoxyphenyl)prop-2-enoyl]piperazinyl}sulfonyl)-1-acetylbenzene] was tested, and the IC50 was less than 100 nM.
`O=C(/C=C/c1ccccc1)N1CCN(Cc2cccc3ccccc23)CC1` [Compound C308, (2E)-1-[4-(naphthylmethyl)piperazinyl]-3-phenylprop-2-en-1-one] was tested, and the IC50 was less than 100 nM.
Compound `O=C(C#Cc1ccccc1C(F)(F)F)N1CCN(C(=O)c2ccc(Cl)cc2)CC1` [Compound C309, 1-{4-[(4-chlorophenyl)carbonyl]piperazinyl}-3-[2-(trifluoromethyl)phenyl]prop-2-yn-1-one] has an IC50 of less than 100 nM.
Work on `O=C(c1ccc(-c2nnn[nH]2)cc1)N1CCN(C(=O)c2cc3ccc(Br)cc3[nH]2)CC1` [Compound C310, 6-bromoindol-2-yl 4-[(4-(1H-1,2,3,4-tetraazol-5-yl)phenyl)carbonyl]piperazinyl ketone] yielded an IC50 of less than 100 nM.
With `S=C(c1cnc2ccccc2c1)N1CCN(C(c2ccccc2)c2ccccc2)CC1` [Compound C311, [4-(diphenylmethyl)piperazinyl]-3-quinolylmethane-1-thione] the IC50 was less than 100 nM.
In the case of `CCCCN1CCN(C(=O)/C=C/c2ccccc2)CC1` [Compound C312, (2E)-1-(4-butylpiperazinyl)-3-phenylprop-2-en-1-one], the IC50 is reported as less than 100 nM.
`COc1cccc(S(=O)(=O)N2CCN(C(=O)/C=C/c3ccc(F)cc3)CC2)c1` [Compound C314, (2E)-3-(4-fluorophenyl)-1-{4-[(3-methoxyphenyl)sulfonyl]piperazinyl}prop-2-en-1-one] gave an IC50 of less than 100 nM.
In the case of `O=C(c1cc2cc(Cl)ccc2[nH]1)N1CCC(Oc2ccc(F)cc2)CC1` [Compound C315, 5-chloroindol-2-yl 4-(4-fluorophenoxy)piperidyl ketone], the IC50 is reported as less than 100 nM.
With `O=C(C#Cc1cccc(Cl)c1)N1CCN(Cc2ccc(Cl)cc2)CC1` [Compound C316, 3-(3-chlorophenyl)-1-{4-[(4-chlorophenyl)methyl]piperazinyl}prop-2-yn-1-one] the IC50 was less than 100 nM.
`O=C(c1cc2cc(Cl)ccc2[nH]1)N1CCC(Oc2ccc(Cl)cc2)CC1` [Compound C317, 5-chloroindol-2-yl 4-(4-chlorophenoxy)piperidyl ketone] showed an IC50 of less than 100 nM.
For `O=C(c1cc2cc(Cl)ccc2[nH]1)N1CCN(Cc2ccc(F)cc2)CC1` [Compound C319, 5-chloroindol-2-yl 4-[(4-fluorophenyl)methyl]piperazinyl ketone], the IC50 was less than 100 nM.
In the case of `O=C(/C=C/c1ccccc1Cl)N1CCN(C(c2ccccc2)c2ccccc2)CC1` [Compound C320, (2E)-1-[4-(diphenylmethyl)piperazinyl]-3-(2-chlorophenyl)prop-2-en-1-one], the IC50 is reported as less than 100 nM.
For `Cc1ccc(NC2CCN(C(=O)c3cc4cc(Cl)ccc4[nH]3)CC2)cc1C` [Compound C322, 4-[(3,4-dimethylphenyl)amino]piperidyl 5-chloroindol-2-yl ketone], the IC50 was less than 100 nM.
